The test system of experiment [1] is MCR. The experiment can be described thus: Effective concentration was measured against frog skin MCR cells at 10 e-4 10 e-12 M Concentration. It counts as functional, cell-based. The note with it: Anura.
A further experiment has as its target Melanocortin receptor 5 (Homo sapiens, UniProt P33032). The experiment can be described thus: Displacement of [125I]NDP-MSH from Melanocortin 5 receptor at 10 uM. For orientation: In a radioligand displacement assay an active substance lowers the binding of a labelled ligand.
Another experiment has as its target Melanocortin receptor 3 (Homo sapiens, UniProt P41968). The experiment can be described thus: Displacement of [125I]NDP-MSH from Melanocortin 3 receptor at 10 uM.
Experiment [2] has as its target T1, Melanocyte-stimulating hormone receptor (Homo sapiens, UniProt Q01726). Put plainly: Displacement of [125I]NDP-MSH from Melanocortin 1 receptor at 10 uM.
Experiment [3] concerns the target T1, Melanocyte-stimulating hormone receptor. Put plainly: effective concentration of peptide at 50% maximal cAMP accumulation on Melanocortin 1 receptor. It counts as functional. A general note: Cyclic AMP is a second messenger, typically raised through Gs and lowered through Gi signalling.
The target in the next experiment is Melanocortin receptor 4 (Homo sapiens, UniProt P32245). Put plainly: Displacement of [125I]NDP-MSH from Melanocortin 4 receptor at 10 uM.
Experiment [4] concerns MCR. The experiment can be described thus: Effective concentration was measured against frog skin(MCR) cells at 10 e-4 10 e-12 M Concentration. The class given is functional, cell-based. The note with it: Anura.

Sequence of Melanocortin receptor 5 (P33032 whole entry): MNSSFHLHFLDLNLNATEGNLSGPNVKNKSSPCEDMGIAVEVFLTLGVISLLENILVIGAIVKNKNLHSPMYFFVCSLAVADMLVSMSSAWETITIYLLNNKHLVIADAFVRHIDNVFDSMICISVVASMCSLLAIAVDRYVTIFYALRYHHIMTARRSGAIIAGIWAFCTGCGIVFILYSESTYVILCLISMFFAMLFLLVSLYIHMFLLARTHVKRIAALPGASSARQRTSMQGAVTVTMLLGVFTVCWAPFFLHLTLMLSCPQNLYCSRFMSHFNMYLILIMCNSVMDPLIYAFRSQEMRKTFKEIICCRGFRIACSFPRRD
Sequence of Melanocortin receptor 4 (P32245 whole entry): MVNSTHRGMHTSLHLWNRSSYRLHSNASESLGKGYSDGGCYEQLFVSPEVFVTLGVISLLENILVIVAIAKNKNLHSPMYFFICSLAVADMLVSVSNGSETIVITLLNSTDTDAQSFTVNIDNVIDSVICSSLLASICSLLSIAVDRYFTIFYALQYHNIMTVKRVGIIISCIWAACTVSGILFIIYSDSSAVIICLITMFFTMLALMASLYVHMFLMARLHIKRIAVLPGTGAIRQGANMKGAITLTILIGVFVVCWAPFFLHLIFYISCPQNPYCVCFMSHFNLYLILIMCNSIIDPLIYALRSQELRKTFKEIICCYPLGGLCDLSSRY
Sequence of Melanocortin receptor 3 (P41968 whole entry): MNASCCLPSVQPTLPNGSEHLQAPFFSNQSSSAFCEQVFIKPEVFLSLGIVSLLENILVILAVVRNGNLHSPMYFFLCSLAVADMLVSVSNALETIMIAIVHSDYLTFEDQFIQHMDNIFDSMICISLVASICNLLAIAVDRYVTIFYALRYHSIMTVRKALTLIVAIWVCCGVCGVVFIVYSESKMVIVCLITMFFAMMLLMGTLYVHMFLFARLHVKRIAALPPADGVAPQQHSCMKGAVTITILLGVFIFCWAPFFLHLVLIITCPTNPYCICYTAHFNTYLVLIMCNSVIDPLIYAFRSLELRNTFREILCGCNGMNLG
T1 sequence (Q01726 whole entry): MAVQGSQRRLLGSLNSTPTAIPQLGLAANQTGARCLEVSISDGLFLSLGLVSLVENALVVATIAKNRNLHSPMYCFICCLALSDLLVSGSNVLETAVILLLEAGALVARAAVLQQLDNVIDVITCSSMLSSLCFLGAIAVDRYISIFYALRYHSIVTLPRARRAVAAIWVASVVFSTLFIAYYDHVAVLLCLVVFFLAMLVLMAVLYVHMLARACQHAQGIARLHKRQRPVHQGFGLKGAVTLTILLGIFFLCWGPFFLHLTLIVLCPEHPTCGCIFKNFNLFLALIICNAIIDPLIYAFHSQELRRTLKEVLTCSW

As usually defined, the EC50 is the concentration giving half of the maximal effect. In general, IC50 refers to the concentration that gives 50% inhibition. A higher IC50 goes with lower potency. Turning to `CC(=O)N[C@@H](Cc1c[nH]cn1)C(=O)N[C@H](Cc1ccccc1)C(=O)N[C@H](CCCN=C(N)N)C(=O)N[C@@H](Cc1c[nH]c2ccccc12)C(N)=O`, it took 10 µM to reach a half-maximal effect in the experiment on MCR [1] (EC50). For the same molecule, the IC50 (on Melanocortin receptor 5; at Melanocortin receptor 3; in experiment [2]) was more than 10 µM in each case.

Consider `CC(=O)N[C@@H](Cc1cnc[nH]1)C(=O)N[C@H](Cc1ccccc1)C(=O)N[C@@H](CCCNC(=N)N)C(=O)N[C@@H](Cc1c[nH]c2ccccc12)C(N)=O`, for which the results for the EC50 (with MCR [1]; in experiment [3]) were 0.2 µM and 0.228 µM, respectively. For the same molecule, the IC50 on Melanocortin receptor 5 was more than 10 µM; at Melanocortin receptor 3 it was more than 10 µM; in experiment [2], 0.615 µM.

Regarding `CC(=O)N[C@@H](Cc1c[nH]cn1)C(=O)N[C@@H](Cc1ccccc1)C(=O)N[C@@H](CCCN=C(N)N)C(=O)N[C@H](Cc1c[nH]c2ccccc12)C(N)=O`, the EC50 in the experiment with MCR [1] amounted to 2 µM; in experiment [3], 1.43 µM. The IC50 at Melanocortin receptor 5 is more than 10 µM; at Melanocortin receptor 3 it was more than 10 µM; in experiment [2] it was 6.35 µM.

With `CC(=O)N[C@H](Cc1ccccc1)C(=O)N[C@H](CCCN=C(N)N)C(=O)N[C@@H](Cc1c[nH]c2ccccc12)C(N)=O`, the EC50 in the experiment on MCR [1] is 5.5 µM. For the same molecule, the half-inhibitory concentration (IC50) (on Melanocortin receptor 5; on Melanocortin receptor 4; at Melanocortin receptor 3; in experiment [2]) was more than 10 µM throughout.

The molecule `CC(=O)N[C@@H](Cc1c[nH]cn1)C(=O)N[C@H](Cc1ccccc1)C(=O)N[C@H](CCCN=C(N)N)C(=O)N[C@H](Cc1c[nH]c2ccccc12)C(N)=O` returned an EC50 in the experiment on MCR [1] of 1.9 µM. For the same molecule, the IC50 (at Melanocortin receptor 5; on Melanocortin receptor 3; in experiment [2]) was more than 10 µM throughout.

Consider `CC(=O)NCC(=O)N[C@H](Cc1ccccc1)C(=O)N[C@@H](CCCN=C(N)N)C(=O)N[C@H](Cc1c[nH]c2ccccc12)C(N)=O`, for which a half-maximal effect with MCR [1] (EC50) was put at 4.2 µM. In addition, the IC50 (on Melanocortin receptor 5; at Melanocortin receptor 4; at Melanocortin receptor 3; in experiment [2]) was more than 10 µM in each case.

In the experiment on MCR [4], `CC(=O)N[C@H](Cc1ccccc1)C(=O)N[C@@H](CCCN=C(N)N)C(=O)N[C@@H](Cc1c[nH]c2ccccc12)C(N)=O` registered an EC50 of 30 µM. Moreover, the IC50 on Melanocortin receptor 5 is more than 10 µM; at Melanocortin receptor 4, 2.08 µM; on Melanocortin receptor 3, more than 10 µM; in experiment [2], more than 10 µM.

Take `CC(=O)N[C@H](Cc1ccccc1)C(=O)N[C@@H](CCCNC(=N)N)C(=O)N[C@H](Cc1c[nH]c2ccccc12)C(N)=O`: the response in the experiment with MCR [4] was half-maximal at 1.5 µM (EC50). Besides, the IC50 was more than 10 µM at Melanocortin receptor 5, 9.16 µM on Melanocortin receptor 4, more than 10 µM at Melanocortin receptor 3 and more than 10 µM in experiment [2].

As to `CC(=O)N[C@@H](Cc1ccccc1)C(=O)N[C@H](CCCN=C(N)N)C(=O)N[C@H](Cc1c[nH]c2ccccc12)C(N)=O`, in the experiment on MCR [1], the EC50 is more than 100 µM. Besides, the IC50 (at Melanocortin receptor 5; on Melanocortin receptor 4; on Melanocortin receptor 3; in experiment [2]) was more than 10 µM throughout.

In turn, `CC(=O)N[C@H](Cc1ccccc1)C(=O)N[C@H](CCCNC(=N)N)C(=O)N[C@H](Cc1c[nH]c2ccccc12)C(N)=O` yielded an EC50 in the experiment on MCR [1] of more than 100 µM. Besides, the IC50 (at Melanocortin receptor 5; at Melanocortin receptor 4; at Melanocortin receptor 3; in experiment [2]) was more than 10 µM throughout.

As to `CC(=O)N[C@@H](Cc1ccccc1)C(=O)N[C@@H](CCCNC(=N)N)C(=O)N[C@H](Cc1c[nH]c2ccccc12)C(N)=O`, the EC50 in the experiment on MCR [1] is more than 100 µM. The IC50 (at Melanocortin receptor 5; at Melanocortin receptor 4; at Melanocortin receptor 3; in experiment [2]) was more than 10 µM in each case.

Source of the values: ChEMBL document CHEMBL1130083, “Discovery of prototype peptidomimetic agonists at the human melanocortin receptors MC1R and MC4R” (J Med Chem, 1997).
